From PubChem BioAssay AID1963847 (Molecular Pharmacology Branch, DTP, NCI, 2024)

Test system: 415267-285-R-J2-PDC complex spheroid viability
Test: Anticancer human tumor 415267-285-R-J2-PDC patient-derived breast carcinoma cell line growth inhibition [POLQ]
Conditions: for IC50: curve of first compound; for viability, T/C: stronger effect = lower value
How it was run: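 Growth inhibition in 3D: complex spheroids (tumor PDC, HUVEC, MSC) treated with POLQ inhibitor combinations; where Cmax unknown, highest tested concentration 10 microM, except SN-38 at 1 microM.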

[1] = second compound 0.0316 µM, first compound 0.0316 µM
[2] = second compound 0.0316 µM, first compound 0.1 µM
[3] = second compound 0.0316 µM, first compound 0.316 µM
[4] = second compound 0.0316 µM, first compound 1 µM
[5] = second compound 0.0316 µM, first compound 3.16 µM
[6] = second compound 0.0316 µM, first compound 10 µM
[7] = second compound 0.1 µM, first compound 0.0316 µM
[8] = second compound 0.1 µM, first compound 0.1 µM
[9] = second compound 0.1 µM, first compound 0.316 µM
[10] = second compound 0.1 µM, first compound 1 µM
[11] = second compound 0.1 µM, first compound 3.16 µM
[12] = second compound 0.1 µM, first compound 10 µM
[13] = second compound 0.316 µM, first compound 0.0316 µM
[14] = second compound 0.316 µM, first compound 0.1 µM
[15] = second compound 0.316 µM, first compound 0.316 µM
[16] = second compound 0.316 µM, first compound 1 µM
[17] = second compound 0.316 µM, first compound 3.16 µM
[18] = second compound 0.316 µM, first compound 10 µM
[19] = second compound 1 µM, first compound 0.0316 µM
[20] = second compound 1 µM, first compound 0.1 µM
[21] = second compound 1 µM, first compound 0.316 µM
[22] = second compound 1 µM, first compound 1 µM
[23] = second compound 1 µM, first compound 3.16 µM
[24] = second compound 1 µM, first compound 10 µM
[25] = second compound 3.16 µM, first compound 0.0316 µM
[26] = second compound 3.16 µM, first compound 0.1 µM
[27] = second compound 3.16 µM, first compound 0.316 µM
[28] = second compound 3.16 µM, first compound 1 µM
[29] = second compound 3.16 µM, first compound 3.16 µM
[30] = second compound 3.16 µM, first compound 10 µM
[31] = second compound 10 µM, first compound 0.0316 µM
[32] = second compound 10 µM, first compound 0.1 µM
[33] = second compound 10 µM, first compound 0.316 µM
[34] = second compound 10 µM, first compound 1 µM
[35] = second compound 10 µM, first compound 3.16 µM
[36] = second compound 10 µM, first compound 10 µM
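Also: spheroids exposed to compounds for one week before readout.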
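For viability, T/C in this document: luminescence used as stand-in measure of viable cells; 100% = DMSO vehicle control viability.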

`C#Cc1c(F)ccc2cc(O)cc(-c3ncc4c(N5CC6CCC(C5)N6)nc(OCC56CCCN5CC(F)C6)nc4c3F)c12` (stereo unspecified) + Cc1cccc(N(C)C(=O)C2C(O)CCN2c2nc(C)cc(C(F)(F)F)c2C#N)c1 was tested, and the IC50 (second compound 0.0316 µM) was > 10 µM, the IC50 (second compound 0.1 µM) was > 10 µM and the IC50 (second compound 0.316 µM) was > 10 µM. For the same compound, the IC50 (second compound 1 µM) was > 10 µM, the IC50 (second compound 3.16 µM) was > 10 µM and the IC50 (second compound 10 µM) was > 10 µM. It also gave a viability, T/C [1] of 96.9%, a viability, T/C [2] of 95.5% and a viability, T/C [3] of 104%. It also gave a viability, T/C [4] of 104%, a viability, T/C [5] of 111% and a viability, T/C [6] of 101%. It also gave a viability, T/C [7] of 91.2%, a viability, T/C [8] of 99.8% and a viability, T/C [9] of 91%. The viability, T/C [10] was 99.8%, the viability, T/C [11] was 104% and the viability, T/C [12] was 102%. It also gave a viability, T/C [13] of 112%, a viability, T/C [14] of 102% and a viability, T/C [15] of 100%. For the same compound, the viability, T/C [16] was 115%, the viability, T/C [17] was 113% and the viability, T/C [18] was 104%. The viability, T/C [19] was 101%, the viability, T/C [20] was 106% and the viability, T/C [21] was 92.9%. For the same compound, the viability, T/C [22] was 117%, the viability, T/C [23] was 106% and the viability, T/C [24] was 109%. For the same compound, the viability, T/C [25] was 113%, the viability, T/C [26] was 98.8% and the viability, T/C [27] was 104%. The viability, T/C [28] was 115%, the viability, T/C [29] was 91.3% and the viability, T/C [30] was 98.7%. For the same compound, the viability, T/C [31] was 105%, the viability, T/C [32] was 95.4% and the viability, T/C [33] was 95.6%. The viability, T/C [34] was 98%, the viability, T/C [35] was 101% and the viability, T/C [36] was 98.4%.

With `CC1COCCN1c1cc(C2(O)CC3CCC(C2)O3)c2cnn(-c3ccn[nH]3)c2n1` (stereo unspecified) + Cc1cccc(N(C)C(=O)C2C(O)CCN2c2nc(C)cc(C(F)(F)F)c2C#N)c1 the IC50 (second compound 0.0316 µM) was < 0.0316 µM, the IC50 (second compound 0.1 µM) was < 0.0316 µM and the IC50 (second compound 0.316 µM) was < 0.0316 µM. The IC50 (second compound 1 µM) was < 0.0316 µM, the IC50 (second compound 3.16 µM) was < 0.0316 µM and the IC50 (second compound 10 µM) was < 0.0316 µM. The viability, T/C [1] was 18.2%, the viability, T/C [2] was 7.78% and the viability, T/C [3] was 5.17%. For the same compound, the viability, T/C [4] was 4.79%, the viability, T/C [5] was 4.69% and the viability, T/C [6] was 4.06%. It also gave a viability, T/C [7] of 17.1%, a viability, T/C [8] of 6.52% and a viability, T/C [9] of 4.78%. The viability, T/C [10] was 4.34%, the viability, T/C [11] was 5.05% and the viability, T/C [12] was 5.28%. The viability, T/C [13] was 17.9%, the viability, T/C [14] was 5.44% and the viability, T/C [15] was 5.64%. For the same compound, the viability, T/C [16] was 4.91%, the viability, T/C [17] was 4.67% and the viability, T/C [18] was 4.41%. It also gave a viability, T/C [19] of 24.7%, a viability, T/C [20] of 6.22% and a viability, T/C [21] of 4.58%. The viability, T/C [22] was 4.12%, the viability, T/C [23] was 4.85% and the viability, T/C [24] was 5.19%. It also gave a viability, T/C [25] of 20.4%, a viability, T/C [26] of 6.14% and a viability, T/C [27] of 5.01%. The viability, T/C [28] was 4.84%, the viability, T/C [29] was 4.41% and the viability, T/C [30] was 4.56%. For the same compound, the viability, T/C [31] was 21.4%, the viability, T/C [32] was 6.79% and the viability, T/C [33] was 5.41%. For the same compound, the viability, T/C [34] was 5.44%, the viability, T/C [35] was 4.9% and the viability, T/C [36] was 4.36%.

For `CCc1cc2c(N3CCc4c(cc(Cn5ccnc5)cc4-c4cn(C)nc4C(F)(F)F)C3=O)cc(C)nc2c(OC)n1` + Cc1cccc(N(C)C(=O)C2C(O)CCN2c2nc(C)cc(C(F)(F)F)c2C#N)c1, the IC50 (second compound 0.0316 µM) was > 10 µM, the IC50 (second compound 0.1 µM) was > 10 µM and the IC50 (second compound 0.316 µM) was > 10 µM. The IC50 (second compound 1 µM) was > 10 µM, the IC50 (second compound 3.16 µM) was > 10 µM and the IC50 (second compound 10 µM) was > 10 µM. It also gave a viability, T/C [1] of 92.6%, a viability, T/C [2] of 98.2% and a viability, T/C [3] of 82%. The viability, T/C [4] was 91.5%, the viability, T/C [5] was 90% and the viability, T/C [6] was 77.1%. For the same compound, the viability, T/C [7] was 93%, the viability, T/C [8] was 89.3% and the viability, T/C [9] was 83%. The viability, T/C [10] was 89.8%, the viability, T/C [11] was 81% and the viability, T/C [12] was 71.7%. For the same compound, the viability, T/C [13] was 97.7%, the viability, T/C [14] was 91.4% and the viability, T/C [15] was 95.1%. It also gave a viability, T/C [16] of 89.7%, a viability, T/C [17] of 85.1% and a viability, T/C [18] of 80.2%. The viability, T/C [19] was 102%, the viability, T/C [20] was 81.4% and the viability, T/C [21] was 84.5%. The viability, T/C [22] was 91.7%, the viability, T/C [23] was 88.7% and the viability, T/C [24] was 74.7%. The viability, T/C [25] was 92.3%, the viability, T/C [26] was 99.7% and the viability, T/C [27] was 90.7%. The viability, T/C [28] was 89.8%, the viability, T/C [29] was 84.8% and the viability, T/C [30] was 87.9%. For the same compound, the viability, T/C [31] was 90.3%, the viability, T/C [32] was 95.7% and the viability, T/C [33] was 89.2%. It also gave a viability, T/C [34] of 91.7%, a viability, T/C [35] of 81.2% and a viability, T/C [36] of 81.7%.
